ChEMBL document CHEMBL6092159, “Design, synthesis, and biological evaluation of novel iNOS inhibitors as potent neuroprotective agents for ischemic stroke” (Eur J Med Chem, 2024)
Converted amounts (≈) assume the structure as drawn. The source made the active and inactive calls. The rule behind the calls is not given here.

Assays:
[1] = Half life in Sprague-Dawley rat at 10 mg/kg, iv measured after 24 hrs by LC-MS/MS analysis; type: ADME, organism-based; details: in vivo
[2] = Tmax in Sprague-Dawley rat at 10 mg/kg, iv measured after 24 hrs by LC-MS/MS analysis; type: ADME, organism-based; details: in vivo
[3] = Apparent volume of distribution in Sprague-Dawley rat at 10 mg/kg, iv measured after 24 hrs by LC-MS/MS analysis; type: ADME, organism-based; details: in vivo, read-out: Vz
[4] = Clearance in Sprague-Dawley rat at 10 mg/kg, iv measured after 24 hrs by LC-MS/MS analysis; type: ADME, organism-based; details: in vivo
[5] = MRT (0 to t) in Sprague-Dawley rat at 10 mg/kg, iv measured after 24 hrs by LC-MS/MS analysis; type: ADME, organism-based; details: in vivo
[6] = MRT (0 to infinity) in Sprague-Dawley rat at 10 mg/kg, iv measured after 24 hrs by LC-MS/MS analysis; type: ADME, organism-based; details: in vivo
[7] = system: SH-SY5Y; assay: Neuroprotective effect in human SH-SY5Y cells assessed as reduction in OGD/R-induced damage by measuring increase in cell viability at 10 uM incubated for 3 hrs followed by washout cells cultured in glucose and FBS-free medium measured after 24 hrs by CCK8 assay; type: functional, cell-based
[8] = system: SH-SY5Y; assay: Neuroprotective effect in human SH-SY5Y cells assessed as reduction in OGD/R-induced damage by measuring increase in cell viability at 1 uM incubated for 3 hrs followed by washout cells cultured in glucose and FBS-free medium measured after 24 hrs by CCK8 assay; type: functional, cell-based
[9] = system: BV-2; assay: Neuroprotective effect in mouse BV-2 cells assessed as reduction in OGD/R-induced damage by measuring increase in cell viability at 10 uM incubated for 3 hrs followed by washout cells cultured in glucose and FBS-free medium measured after 24 hrs by CCK8 assay; type: functional, cell-based
[10] = system: SH-SY5Y; assay: Antioxidant activity in human SH-SY5Y cells assessed as reduction in OGD/R-induced ROS level at 1 uM incubated for 3 hrs followed by washout cells cultured in glucose and FBS-free medium measured after 24 hrs by DCFH-DA probe based fluorescence microscopy assay; type: functional, cell-based
[11] = system: SH-SY5Y; assay: Antioxidant activity in human SH-SY5Y cells assessed as reduction in OGD/R-induced LDH level at 1 uM incubated for 3 hrs followed by washout cells cultured in glucose and FBS-free medium measured after 24 hrs by colorimetric assay; type: functional, cell-based
[12] = system: SH-SY5Y; assay: […] effect in human SH-SY5Y cells assessed as reduction in OGD/R-induced caspase-3 activity using substrate GreenNuc Caspase-3 Substrate is a peptide DEVD coupled with a DNA green fluorescent dye at 1 uM incubated for 3 hrs followed by washout cells cultured in glucose and FBS-free medium measured after 24 hrs by […] assay; type: functional, cell-based
[13] = biological target: Nitric oxide synthase, inducible (Homo sapiens, UniProt P35228); assay: Inhibition of iNOS (unknown origin) assessed as nitric oxide production at 1 uM by hemoglobin capture assay
[14] = biological target: T1, Nitric oxide synthase 3 (Homo sapiens) (UniProt P29474); assay: Inhibition of eNOS (unknown origin) assessed as nitric oxide production 1 uM by hemoglobin capture assay
T1 sequence (whole entry): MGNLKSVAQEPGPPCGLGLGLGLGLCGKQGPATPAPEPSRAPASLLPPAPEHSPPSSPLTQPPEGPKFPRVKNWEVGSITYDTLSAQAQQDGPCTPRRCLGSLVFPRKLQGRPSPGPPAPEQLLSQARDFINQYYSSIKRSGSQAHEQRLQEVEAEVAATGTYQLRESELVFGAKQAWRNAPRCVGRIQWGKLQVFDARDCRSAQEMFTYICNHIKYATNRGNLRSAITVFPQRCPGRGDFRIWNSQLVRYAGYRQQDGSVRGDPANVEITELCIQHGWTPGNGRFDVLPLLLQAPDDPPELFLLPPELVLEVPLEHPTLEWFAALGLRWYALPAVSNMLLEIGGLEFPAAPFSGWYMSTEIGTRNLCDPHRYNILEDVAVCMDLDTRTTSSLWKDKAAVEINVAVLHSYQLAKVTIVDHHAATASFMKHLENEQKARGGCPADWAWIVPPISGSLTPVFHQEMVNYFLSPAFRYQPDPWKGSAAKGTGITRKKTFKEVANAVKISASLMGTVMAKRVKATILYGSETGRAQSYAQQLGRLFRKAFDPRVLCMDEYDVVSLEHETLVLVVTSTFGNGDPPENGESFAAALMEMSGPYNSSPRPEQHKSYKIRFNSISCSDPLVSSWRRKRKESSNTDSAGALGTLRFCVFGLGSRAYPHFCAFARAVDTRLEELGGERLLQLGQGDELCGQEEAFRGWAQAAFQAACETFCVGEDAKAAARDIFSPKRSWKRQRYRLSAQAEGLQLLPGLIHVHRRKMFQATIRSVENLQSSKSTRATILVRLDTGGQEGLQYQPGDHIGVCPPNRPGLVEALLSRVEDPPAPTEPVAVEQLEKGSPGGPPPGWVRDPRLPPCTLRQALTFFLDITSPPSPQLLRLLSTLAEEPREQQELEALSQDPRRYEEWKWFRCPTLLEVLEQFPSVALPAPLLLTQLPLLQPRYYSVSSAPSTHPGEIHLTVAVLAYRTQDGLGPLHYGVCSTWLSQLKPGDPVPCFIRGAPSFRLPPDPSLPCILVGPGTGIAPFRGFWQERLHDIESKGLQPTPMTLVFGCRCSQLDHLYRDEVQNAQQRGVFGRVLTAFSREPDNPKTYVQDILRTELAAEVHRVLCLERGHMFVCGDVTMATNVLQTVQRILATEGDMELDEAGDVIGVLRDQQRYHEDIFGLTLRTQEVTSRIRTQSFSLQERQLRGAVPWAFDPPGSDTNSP

[15] = biological target: Nitric oxide synthase 1 (Homo sapiens) (UniProt P29475); assay: Inhibition of nNOS (unknown origin) assessed as nitric oxide production 1 uM by hemoglobin capture assay
[16] = Stability in rat plasma assessed as half life; type: ADME, cell-free
[17] = Metabolic stability in rat liver microsomes assessed as half life; type: ADME, Microsome
[18] = Solubility of the compound by HPLC based dissolution test; type: physicochemical
[19] = Ratio of drug concentration male Sprague-Dawley rat brain to blood at 5 mg/kg, iv measured after 24 hrs by LC-MS/MS analysis; type: ADME, organism-based
[20] = system: Rattus norvegicus; assay: (§1) Anti-cerebral ischemia activity in rat tMCAO (transient middle cerebral artery occlusion) model assessed as reduction in cerebral infarct area at 9.61 mg/kg, iv treated after 2 hrs ischemia followed by reperfusion measured after 24 hrs of post-reperfusion by single-dose experiment; type: functional, organism-based; details: time 26.0 hrs
[21] = system: Rattus norvegicus; assay: as §1, with “24 to 72” for “24”, “TTC staining based multiple-dose” for “single-dose”; type: functional, organism-based; details: time 26-74 hrs
[22] = system: Rattus norvegicus; assay: as §1, with “measuring modified neurological severity score (mNSS) test based multiple-dose” for “single-dose”, “experiment relative to MCAO group” for “experiment”; type: functional, organism-based
[23] = system: Rattus norvegicus; assay: as §1, with “measuring turn left counts test based multiple-dose” for “single-dose”, “experiment relative to MCAO group” for “experiment”; type: functional, organism-based
[24] = system: Rattus norvegicus; assay: as §1, with “72” for “24”, “measuring modified neurological severity score (mNSS) test based multiple-dose” for “single-dose”, “experiment relative to MCAO group” for “experiment”; type: functional, organism-based
[25] = system: Rattus norvegicus; assay: as §1, with “72” for “24”, “measuring turn left counts test based multiple-dose” for “single-dose”, “experiment relative to MCAO group” for “experiment”; type: functional, organism-based
[26] = Ratio of drug concentration male Sprague-Dawley rat brain to blood at 3.4 mg/kg, iv measured after 24 hrs by LC-MS/MS analysis; type: ADME, organism-based
[27] = system: Rattus norvegicus; assay: Anti-cerebral ischemia activity in rat tMCAO (transient middle cerebral artery occlusion) model assessed as reduction in cerebral infarct area at 6.58 mg/kg, iv treated after 2 hrs ischemia followed by reperfusion measured after 24 hrs of post-reperfusion by single-dose experiment; type: functional, organism-based; details: time 26.0 hrs
[28] = system: Rattus norvegicus; assay: Anti-cerebral ischemia activity in rat tMCAO (transient middle cerebral artery occlusion) model assessed as reduction in cerebral infarct area in presence of NBP at 6.58 mg/kg, iv treated after 2 hrs ischemia followed by reperfusion measured after 24 hrs of post-reperfusion by single-dose experiment; type: functional, organism-based; details: time 26.0 hrs
[29] = system: Rattus norvegicus; assay: (§2) Anti-cerebral ischemia activity in rat tMCAO (transient middle cerebral artery occlusion) model assessed as reduction in cerebral infarct area at 5 mg/kg, iv treated after 2 hrs ischemia followed by reperfusion measured after 24 hrs of post-reperfusion by single-dose experiment; type: functional, organism-based; details: time 26.0 hrs
[30] = system: Rattus norvegicus; assay: Anti-cerebral ischemia activity in rat tMCAO (transient middle cerebral artery occlusion) model assessed as reduction in cerebral infarct area in presence of 1400W at 5 mg/kg, iv treated after 2 hrs ischemia followed by reperfusion measured after 24 hrs of post-reperfusion by single-dose experiment; type: functional, organism-based; details: time 26.0 hrs
[31] = system: Rattus norvegicus; assay: as §2, with “24 to 72” for “24”, “TTC staining based multiple-dose” for “single-dose”; type: functional, organism-based; details: time 26-74 hrs
[32] = system: Rattus norvegicus; assay: Anti-cerebral ischemia activity in rat tMCAO (transient middle cerebral artery occlusion) model assessed as reduction in cerebral infarct area at 9.98 mg/kg, iv treated after 2 hrs ischemia followed by reperfusion measured after 24 hrs of post-reperfusion by single-dose experiment; type: functional, organism-based; details: time 26.0 hrs

Sequence of Nitric oxide synthase, inducible (P35228 whole entry): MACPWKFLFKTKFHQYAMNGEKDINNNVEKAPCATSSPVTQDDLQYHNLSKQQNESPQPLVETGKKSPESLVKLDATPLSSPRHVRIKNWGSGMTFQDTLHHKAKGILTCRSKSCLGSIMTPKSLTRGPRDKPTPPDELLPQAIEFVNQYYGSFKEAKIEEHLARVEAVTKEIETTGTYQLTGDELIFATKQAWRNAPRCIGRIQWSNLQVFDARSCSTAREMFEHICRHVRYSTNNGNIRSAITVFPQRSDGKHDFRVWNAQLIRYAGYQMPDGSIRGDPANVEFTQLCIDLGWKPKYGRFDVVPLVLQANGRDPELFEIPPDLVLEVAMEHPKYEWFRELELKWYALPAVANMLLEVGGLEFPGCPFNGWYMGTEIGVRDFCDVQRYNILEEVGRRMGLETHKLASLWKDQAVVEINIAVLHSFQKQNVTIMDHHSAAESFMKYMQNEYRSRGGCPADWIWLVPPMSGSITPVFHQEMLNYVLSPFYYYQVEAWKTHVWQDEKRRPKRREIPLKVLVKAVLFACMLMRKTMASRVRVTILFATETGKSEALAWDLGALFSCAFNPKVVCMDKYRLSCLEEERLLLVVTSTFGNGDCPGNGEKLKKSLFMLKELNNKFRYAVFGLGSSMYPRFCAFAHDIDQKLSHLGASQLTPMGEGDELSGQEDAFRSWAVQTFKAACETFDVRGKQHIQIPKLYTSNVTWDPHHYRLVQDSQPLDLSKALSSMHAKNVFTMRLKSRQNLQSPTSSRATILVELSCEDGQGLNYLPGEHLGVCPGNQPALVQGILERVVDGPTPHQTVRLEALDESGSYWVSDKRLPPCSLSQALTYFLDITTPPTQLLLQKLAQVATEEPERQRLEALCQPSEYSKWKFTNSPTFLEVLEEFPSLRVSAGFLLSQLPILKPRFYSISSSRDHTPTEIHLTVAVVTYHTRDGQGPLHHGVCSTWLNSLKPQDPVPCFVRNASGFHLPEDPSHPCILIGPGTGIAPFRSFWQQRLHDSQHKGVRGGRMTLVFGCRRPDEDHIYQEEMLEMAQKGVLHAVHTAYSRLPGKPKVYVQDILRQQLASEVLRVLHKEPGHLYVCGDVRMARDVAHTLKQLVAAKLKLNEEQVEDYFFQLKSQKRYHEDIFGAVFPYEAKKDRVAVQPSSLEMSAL
Sequence of Nitric oxide synthase 1 (Homo sapiens) (P29475 whole entry): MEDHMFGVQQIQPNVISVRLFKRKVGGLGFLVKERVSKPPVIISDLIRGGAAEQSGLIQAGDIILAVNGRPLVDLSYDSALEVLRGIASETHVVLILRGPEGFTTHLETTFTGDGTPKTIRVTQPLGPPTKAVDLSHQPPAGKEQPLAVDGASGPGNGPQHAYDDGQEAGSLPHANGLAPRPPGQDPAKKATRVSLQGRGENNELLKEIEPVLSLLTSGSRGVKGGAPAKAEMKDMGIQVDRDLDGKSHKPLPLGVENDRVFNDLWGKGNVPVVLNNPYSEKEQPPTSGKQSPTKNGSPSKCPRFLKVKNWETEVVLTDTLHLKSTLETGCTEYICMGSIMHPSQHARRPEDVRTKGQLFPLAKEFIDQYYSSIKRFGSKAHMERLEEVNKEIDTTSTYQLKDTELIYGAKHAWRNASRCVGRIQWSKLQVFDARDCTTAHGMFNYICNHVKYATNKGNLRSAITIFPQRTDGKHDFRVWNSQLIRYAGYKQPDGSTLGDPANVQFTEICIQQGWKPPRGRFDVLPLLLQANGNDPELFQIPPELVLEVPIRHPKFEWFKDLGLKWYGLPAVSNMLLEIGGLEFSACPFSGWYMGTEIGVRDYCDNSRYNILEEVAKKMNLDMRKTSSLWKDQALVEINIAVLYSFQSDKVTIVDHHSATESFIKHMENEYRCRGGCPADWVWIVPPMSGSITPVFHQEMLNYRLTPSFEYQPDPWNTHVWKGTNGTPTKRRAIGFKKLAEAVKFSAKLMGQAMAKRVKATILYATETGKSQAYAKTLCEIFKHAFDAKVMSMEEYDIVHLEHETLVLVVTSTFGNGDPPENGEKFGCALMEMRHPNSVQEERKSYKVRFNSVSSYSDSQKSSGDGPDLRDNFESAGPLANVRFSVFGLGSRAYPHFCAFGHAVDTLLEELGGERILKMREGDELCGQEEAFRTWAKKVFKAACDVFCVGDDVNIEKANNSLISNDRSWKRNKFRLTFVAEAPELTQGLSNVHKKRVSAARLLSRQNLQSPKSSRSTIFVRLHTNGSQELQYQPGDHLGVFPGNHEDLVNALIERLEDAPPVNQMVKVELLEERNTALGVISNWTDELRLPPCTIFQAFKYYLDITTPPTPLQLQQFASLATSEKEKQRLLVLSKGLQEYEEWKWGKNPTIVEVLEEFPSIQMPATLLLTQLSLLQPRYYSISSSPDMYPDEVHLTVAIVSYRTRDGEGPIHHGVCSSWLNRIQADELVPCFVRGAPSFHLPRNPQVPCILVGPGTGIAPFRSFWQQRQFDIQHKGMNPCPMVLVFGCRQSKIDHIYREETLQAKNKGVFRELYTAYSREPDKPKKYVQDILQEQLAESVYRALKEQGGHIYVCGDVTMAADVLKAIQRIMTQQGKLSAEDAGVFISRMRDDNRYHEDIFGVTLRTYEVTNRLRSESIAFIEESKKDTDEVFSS

SMILES	Tmax [2] [min]	Vd [3] [L/kg]	CL [4] [mL/min/kg]	MRT last at 24 h [5] [h]	MRT inf [6] [h]	Activity [7]	Activity [8]	Activity [9]	Activity [10]	Activity [11]	Activity [12]	IC50 [13] [nM]	Activity [14]	solubility [18] [mg/mL]	further results
CCCCC1OC(=O)c2cc(NCc3cccc(CNC(C)=N)c3)ccc21 (centres undefined)	4.98	32.4	71.33	1.62	1.91	Active	Active; Compound Demonstrating Comparable Protective Effects To Nbp And 1400W	Active; Compound Exhibit Similar Protective Effects As Nbp And 1400W	Active	Active	Active	171	inactive	30 (≈ 82.1 mM)	half-life [1]: 5.21 h; inhibition [15]: 3.64%; half-life [16]: 23 h; half-life [17]: 2 h; BBR [19]: 27.36%; Activity [20]: Active; Activity [21]: Active; Efficacy Of Compound Superior Than Nbp Group; Activity [22]: Active; Activity [23]: Active; Activity [24]: Active; Activity [25]: Active
CC(=N)NCc1cccc(CN)c1 [1400W]	4.98	21.7	90.12	0.96	1.11				Active	Active	Active		inactive		BBR [26]: 10.96%; Activity [27]: Active; Activity [28]: Active
CCCCC1OC(=O)c2ccccc21 (racemic) [RAC-3-N-BUTYLPHTHALIDE]									Active	Active	Active			0.25 (≈ 1.31 mM)	Activity [29]: Active; Activity [30]: Active; Activity [31]: Active
CCCCC1OC(=O)c2cc(NC(=O)c3cccc(NC(C)=N)c3)ccc21 (centres undefined)						Active						474			
CCCCC1OC(=O)c2cc(NCc3cccc(NC(C)=N)c3)ccc21 (centres undefined)						Active						275			
CCCCC1OC(=O)c2cc(NC(=O)c3cccc(CNC(C)=N)c3)ccc21 (centres undefined)						Active	Active; Compound Demonstrating Comparable Protective Effects To Nbp And 1400W	Active; Compound Exhibit Similar Protective Effects As Nbp And 1400W		Active		245			Activity [32]: Active
